Source: PubChem BioAssay (NCI)
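Step 1: Grow cells in 96-well plates. Step 2: Expose to compound for 48 hours at 5 concentrations. Step 3: Interpolate endpoints linearly; if unreached, use highest concentration. GI50 marks 50% less growth. Definition used: TGI = concentration required for complete inhibition of growth.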

Columns and labels:
Assay in all cases: NCI-60 cell line screen, 48 h
[1] = tested on: KM12 colon
[2] = tested on: NCI-H23 lung
[3] = tested on: ACHN renal
[4] = tested on: UO-31 renal
[5] = tested on: SN12C renal
[6] = tested on: OVCAR-5 ovarian
[7] = tested on: 786-0 renal
[8] = tested on: SR leukemia
[9] = tested on: OVCAR-3 ovarian
[10] = tested on: SF-539 CNS
[11] = tested on: CAKI-1 renal
[12] = tested on: OVCAR-4 ovarian
[13] = tested on: EKVX NSCLC
[14] = tested on: RPMI-8226 leukemia
[15] = tested on: HCC-2998 colon
[16] = tested on: TK-10 renal
[17] = tested on: SNB-75 CNS
[18] = tested on: PC-3 prostate
[19] = tested on: SW-620 colon
[20] = tested on: MDA-N
[21] = tested on: HT29 colon
[22] = tested on: OVCAR-8 ovarian
[23] = tested on: HOP-92 NSCLC
[24] = tested on: HS 578T breast
[25] = tested on: MCF7 breast
[26] = tested on: SK-MEL-2 melanoma
[27] = tested on: RXF 393 renal
[28] = tested on: NCI-H522 lung
[29] = tested on: HCT-15 colon
[30] = tested on: SK-MEL-5 melanoma
[31] = tested on: LOX IMVI melanoma
[32] = tested on: IGROV1 ovarian
[33] = tested on: NCI/ADR-RES ovarian
[34] = tested on: SF-268 CNS
[35] = tested on: DU-145 prostate
[36] = tested on: BT-549 breast
[37] = tested on: CCRF-CEM leukemia
[38] = tested on: HCT-116 colon
[39] = tested on: SNB-19 CNS
[40] = tested on: A549 NSCLC
[41] = tested on: NCI-H460 lung
[42] = tested on: M14 melanoma
[43] = tested on: K-562 leukemia
[44] = tested on: SK-OV-3 ovarian
[45] = tested on: U251 CNS
[46] = tested on: SF-295 CNS
[47] = tested on: MDA-MB-435
[48] = tested on: COLO 205 colon
[49] = tested on: UACC-257 melanoma
[50] = tested on: UACC-62 melanoma
[51] = tested on: MOLT-4 leukemia
[52] = tested on: MDA-MB-231 breast
[53] = tested on: HOP-62 NSCLC
[54] = tested on: SK-MEL-28 melanoma
[55] = tested on: MALME-3M melanoma
[56] = tested on: T-47D breast
[57] = tested on: A498 renal
[58] = tested on: NCI-H226 lung
[59] = tested on: HL-60(TB) leukemia

COc1c(C)c(C/C=C(\C)CCCC(C)CCCC(C)CCCC(C)C)c(OC)c2ccccc12 (stereo not drawn)
TGI [1]: > 100 µM | TGI [2]: > 100 µM | TGI [3]: > 100 µM | TGI [4]: > 100 µM | TGI [5]: > 100 µM | TGI [6]: > 100 µM | TGI [7]: > 100 µM | TGI [8]: > 100 µM | TGI [9]: > 100 µM | TGI [10]: > 100 µM | TGI [11]: > 100 µM | TGI [12]: > 100 µM | TGI [13]: > 100 µM | TGI [14]: > 100 µM | TGI [15]: > 100 µM | TGI [16]: > 100 µM | TGI [17]: > 100 µM | TGI [18]: > 100 µM | TGI [19]: > 100 µM | TGI [20]: > 100 µM | TGI [21]: > 100 µM | TGI [22]: > 100 µM | TGI [23]: > 100 µM | TGI [24]: > 100 µM | TGI [25]: > 100 µM | TGI [26]: > 100 µM | TGI [27]: > 100 µM | TGI [28]: > 100 µM | TGI [29]: > 100 µM | TGI [30]: > 100 µM | TGI [31]: > 100 µM | TGI [32]: > 100 µM | TGI [33]: > 100 µM | TGI [34]: > 100 µM | TGI [35]: > 100 µM | TGI [36]: > 100 µM | TGI [37]: > 100 µM | TGI [38]: > 100 µM | TGI [39]: > 100 µM | TGI [40]: > 100 µM | TGI [41]: > 100 µM | TGI [42]: > 100 µM | TGI [43]: > 100 µM | TGI [44]: > 100 µM | TGI [45]: > 100 µM | TGI [46]: > 100 µM | TGI [47]: > 100 µM | TGI [48]: > 100 µM | TGI [49]: > 100 µM | TGI [50]: > 100 µM | TGI [51]: > 100 µM | TGI [52]: > 100 µM

CC/C=C/c1cc2c(cc1O)CCC1C2CC[C@@]2(C)C1CC[C@@H]2O (stereo partly drawn)
TGI [1]: 15 µM | TGI [2]: 20.2 µM | GI50 [53]: 2.69 µM | TGI [53]: 16.7 µM | TGI [3]: 17.9 µM | TGI [4]: 18.3 µM | TGI [54]: 24.1 µM | GI50 [5]: 5.13 µM | TGI [5]: 18.7 µM | TGI [6]: 26.8 µM | TGI [7]: 13.8 µM | TGI [8]: 0.817 µM | TGI [9]: 1.6 µM | GI50 [10]: 0.645 µM | TGI [10]: 2.59 µM | TGI [11]: 13.7 µM | TGI [12]: 35.3 µM | TGI [13]: 14.3 µM | TGI [14]: 6.46 µM | TGI [15]: 33.2 µM | TGI [16]: 4.72 µM | TGI [17]: 8.14 µM | TGI [55]: 15.8 µM | TGI [18]: 11.6 µM | TGI [19]: 14.2 µM | TGI [20]: 0.637 µM | TGI [21]: 21.1 µM | TGI [56]: 15 µM | TGI [22]: 20.3 µM | TGI [23]: 26 µM | TGI [24]: 6.11 µM | TGI [25]: 10.1 µM | TGI [26]: 6.29 µM | TGI [27]: 7.92 µM | TGI [28]: 14.1 µM | TGI [29]: 29.9 µM | TGI [30]: 11.3 µM | TGI [31]: 6.68 µM | TGI [32]: 17.5 µM | TGI [33]: 5.67 µM | TGI [34]: 24.8 µM | TGI [35]: 14.6 µM | TGI [37]: 14.8 µM | TGI [38]: 14.3 µM | TGI [39]: 17.4 µM | TGI [40]: 20 µM | TGI [41]: 17.3 µM | TGI [42]: 12.2 µM | TGI [43]: 7.66 µM | TGI [44]: 16.7 µM | TGI [57]: 9.03 µM | TGI [58]: 10.6 µM | TGI [45]: 15.7 µM | TGI [46]: 1.48 µM | TGI [47]: 1.12 µM | TGI [48]: 27.5 µM | TGI [49]: 25.2 µM | GI50 [50]: 0.485 µM | TGI [50]: 7.91 µM | TGI [51]: 18.8 µM | TGI [52]: 18.1 µM

O=c1[nH]nc(-c2ccccc2)c2[nH]c3c(c12)Cc1ccccc1-3
TGI [1]: > 83.5 µM | TGI [2]: > 100 µM | TGI [53]: > 100 µM | TGI [3]: > 100 µM | TGI [4]: > 100 µM | TGI [54]: > 100 µM | TGI [5]: > 100 µM | TGI [6]: > 100 µM | TGI [7]: > 100 µM | TGI [9]: > 49 µM | TGI [10]: > 28.3 µM | TGI [11]: > 100 µM | TGI [12]: > 100 µM | TGI [13]: > 100 µM | TGI [14]: > 28.4 µM | TGI [15]: > 100 µM | TGI [16]: > 100 µM | TGI [17]: > 43.3 µM | TGI [55]: > 41.6 µM | TGI [18]: > 100 µM | TGI [19]: > 100 µM | TGI [20]: > 27.4 µM | TGI [21]: > 70 µM | TGI [56]: > 100 µM | TGI [22]: > 100 µM | TGI [23]: 9.68 µM | TGI [24]: > 100 µM | TGI [25]: > 100 µM | TGI [26]: > 100 µM | TGI [27]: > 42.2 µM | TGI [29]: > 100 µM | TGI [31]: > 100 µM | TGI [32]: > 100 µM | TGI [33]: > 100 µM | TGI [34]: > 100 µM | TGI [35]: > 100 µM | TGI [36]: > 100 µM | TGI [59]: 7.48 µM | TGI [37]: > 100 µM | TGI [38]: > 100 µM | TGI [39]: > 100 µM | TGI [40]: > 100 µM | TGI [41]: > 100 µM | TGI [42]: > 100 µM | TGI [43]: > 100 µM | TGI [44]: > 100 µM | TGI [57]: > 100 µM | TGI [58]: 70.7 µM | TGI [45]: > 100 µM | TGI [46]: > 100 µM | TGI [47]: 37.3 µM | TGI [48]: > 34.4 µM | TGI [49]: > 100 µM | TGI [50]: 2.69 µM | TGI [51]: > 25.2 µM
